In brackets after ≈: the same amount, converted by molar mass. Several values for one entry are separate records, joined by “and”; a condition that tells them apart may be missing. Equal values may be shown once. Read-outs that look alike come from different tables or passages of the source.
Assays:
[1] = system: T. gondii tachyzoites (RH strain); assay: microbe, parasite or virus in culture; assay type: cell-based, Toxoplasma gondii
Experimental: The improvements are based on microscopic visual imspection of infected and inhibitor treated cultures, and on quantitation of nucleic acid synthesis of the parasite by measure intake of ^3H uracil onto the parasite's nucleic acid. Uracil is not utilized by mammalian cells. […] Only the RH strain tachyzoites, cultured for up to 72 hours, had been used in previously reported assays. The use of Me49, Ptg, and R5 mutant are unique aspects of the methods used in these assays in this invention.
(§1) In these assays toxicity of a candidate inhibitor was assessed by its ability to prevent growth of human foreskin fibroblasts (HFF) after 4 days and after 8 days as measured by tritiated thymidine uptake and microscopic evaluation. Confluent monolayers of HFF were infected with tachyzoites and bradyzoites. Inhibitor was added one hour later. Non-toxic doses were used in parasite growth inhibition assays. Parasite growth was measured by ability to incorporate tritiated uracil during the last 18 hours of culture.
(§2) First the toxicity of gabaculine was assessed by its ability to prevent growth of human foreskin fibroblasts (HFF) as measured by ^3H-thymidine uptake and microscopic evaluation. Non-toxic doses were used in parasite growth inhibition assays. in vitro parasite growth inhibition assays included confluent monolayers of HFF infected with tachyzoites (RH) or mutant Me49 (R5). Gabaculine was added 1 hour later. Parasite growth was measured by the ability to incorporate ^3H-uracil during the last 18 hours of culture. In addition, parasite growth was evaluated microscopically in Giemsa stained slides.
ii) in vitro Parasite Growth Inhibition Assays: Confluent monolayers of HFF cells, grown in 96-well plates are infected with T. gondii tachyzoites of the RH strain and serial dilutions of anti-microbial compound are applied 1 hour later. T. gondii growth is assessed in these cultures by their ability to incorporate tritiated uracil (2.5 μCi/well) added during the last 18 hours of culture. After harvesting cells with an automatic cell harvester, uracil incorporation is measured by liquid scintillation.

[2] = system: T. gondii isocitrate lyase; assay: Isocitrate lyase enzyme activity in T. gondii tachyzoite lysates; assay type: biochemical, Toxoplasma gondii
Experimental: Parasite lysates were obtained from tachyzoites, suspended in elution buffer (100 mM KCL, 20% gylcerol 7 mM 2-mercaptoethanol, 20 mM Tris-HCL, pH 7.5, and complete protease inhibitor cocktail) [Boehringer Mannheim, 1 table per 50 ml buffer], sonicated 3 times for 3 seconds at 30 sec intervals, and centrifuged at 12,000 g for 15 min. The supernatant collected was applied to a Sephadex® G100 column (25 ml, Pharmacia) equilibrated with elution buffer, eluted with 15 ml of elution buffer,. and ≈1.5 ml fractions were collected. Fraction(s) with the peak protein concentrations (protein analysis performed on a spectrophotometer at 280 nm) were selected and used in enzyme assays.
A discontinuous method descrobed by Ko and McFadden^17 was employed with minor modifications to measure the ability of isocitrate lyase to convert isocitrate to succinate and glyoxylate. This method utilizes the colorimetric reaction between the phenylhydrozone of glyoxylate and ferricyanide. Reaction mixtures (92 mM MOPS, 5 mM MgCL2, 1 mM DTT, 1% phenylhydrazine, 4.4 mM isocitrate, in 0.5 ml with fractionated parasite lysate) were incubated in a 37° C. water bath for a determined amount of time. After incubation, enzymatic reactions were stopped with concentrated HCl, mixed with 25% (w/v) potassium ferricyanide, and then measured in a spectrophotometer at 520 nm.

C. parvum = C. parvum infection of MDBKF5D2 cell monolayers, immunofluorescence assay at 48 hours; assay type: cell-based, Cryptosporidium parvum; conditions: for approximate 95% C1 count (mean parasite count per field): media alone ~1800
Experimental: C. parvum oocysts at 50,000/well were incubated at 37° C. (8% CO2) on confluent MDBKF5D2 cell monolayers in 96 well microtiter plates with the following concentrations of each drug. […] The level of infection of each well was determined and analyzed by an immunofluorescence assay at 48 hours using an antibody to C. parvum sporozoites made in rabbits at a concentration of 0.1%. Fluorescein-conjugated goat anti-rabbit antibody was used at a concentration of 1%.
(8% carbon dioxide) on confluent MDBKF5D2 cell monolayers in 96 well microtiter plates. The level of infection of each well was determined and analyzed by an immunofluorescence assay at 48 hours using as an antibody C. parvum sporozoite rabbit anti-serum (0.1%), and using fluorescein-conjugated goat anti-rabbit antibody (1%). Data are expressed as mean parasite count/field when 16 fields counted at 10× magnification “s.d. of the mean” (FIG. 6).

[3] = system: D6 clone of Plasmodium falciparum; assay: P. falciparum in vitro assay (Milhous et al., 1985), D6 clone; assay type: cell-based; conditions: D6 clone, folate deficient RPMI 1640, 66 hour incubation
T. gondii EPSP synthase = T. gondii EPSP synthase enzyme activity (HPLC); assay type: biochemical, Toxoplasma gondii; conditions: 1 mM
Experimental: Assays for 4-aminobenzoate and 4-amino-4-deoxychorismate are performed as described previously.” Enzyme Assays: The 5-enolpyruvylshikimate-3-phosphate (EPSP) synthase assay entailed monitoring the generation of EPSP using HPLC. Reaction components were separated using a Hypersil H3APS2 HPLC column (Hichrom Limited, Reading, UK) and a NaH2PO4 elution gradient (50-400 mM). UV spectra (200-300 nm) of the colume eluate were collected to identify eluants. […] The peaks at 215 nm were integrated; the EPSP produced was quantified using a standard curve of authentic EPSP. Parasite extracts were produced at 4° C. by suspension of pure tachyzoites in extraction buffer (50 mM Tris.HCl, pH 7.5, containing complete TM protease inhibitor cocktail [Boehringer Mannheim, 1 tablet per 50 ml buffer]), sonication 3 times for 3 seconds at 30 second intervals, and centrifugation at 12000 g for 15 min. The resulting supernatant was diluted 6-fold with extraction buffer and loaded onto a ResourceQ column (1 ml, Pharmacia) equilibrated with extraction buffer. The bound protein was eluted in a single step using extraction buffer containing 500 mM Kcl. The eluted material was used for enzyme assay. The assay mix contained 1 mM phosphoenolpyruvate, 1 mM SP and 50 mM HEPES, pH 7.5. […] Protein concentrations of lysates were determined using the Lowry method. […]

[4] = system: P. falciparum asexual erythrocytic forms; assay: P. falciparum in vitro growth, clone not stated; assay type: cell-based, Plasmodium falciparum
Experimental: This assay is performed in folate deficient RPMI 1640 over a 66 hour incubation in plasma as described by Milhous et al. (1985). Both the W2 clone DHFR resistant phenotype and the D6 clone are used (Odula et al., 1988) (Table 3).

T. gondii = assay: Assay for synergy in vitro: inhibitors alone and together on replication of T. gondii (uracil CPM); assay type: cell-based, Toxoplasma gondii; conditions: Drug A alone: NPMG (3.25 mM)
Excerpt: The effect of enzymes in pathways “in parallel” are additive and in “series” are more than the additive effect of either inhibitor used alone (i.e., synergistic). […] The shikimate pathway produces 3,4-dihdroxybenzoate which is converted to ubiquinone, an essential component of the electron transport chain. Thus, NPMG, an inhibitor of EPSP-synthase, indirectly affects ubiquinone production and, thus, the electron transport chain. Similarly, heme is required for production of cytochromes in the electron transport chain. Thus, inhibition of heme production by gabaculine also indirectly affects the conventional electron transport chain. […] T. gondii growth is measured by their ability to incorporate tritiated uracil and is expressed as counts/minute (CPM).
g) Assays for Synergy in vitro: This is an assy in which ≦50% inhibitor concentrations of two antimicrobial agents are added alone and together to determine whether there is an additive, synergistic or inhibitory interaction. All other aspects of this assay are as described herein.

[5] = system: human foreskin fibroblasts (HFF); assay: Toxicity: growth of fibroblasts, tritiated thymidine uptake and microscopic evaluation; assay type: cell-based; conditions: similar concentrations (20 mM gabaculine)
Experimental: as §1, §2
d) Inhibitors: Inhibitor compounds are tested over a range of concentrations for toxicity against mammalian cells by assessing their ability to prevent cell growth as measured by tritiated thymidine uptake and inspection of the monolayer using microscopic evaluation. […]

[6] = system: mutant R5 strain of T. gondii; assay: Growth of mutant R5 strain of T. gondii in HFF over 8 days, uracil uptake; assay type: cell-based, Toxoplasma gondii; conditions: gabaculine 20 mM; P/S
Experimental: Improvements were developed in the assays reported by Mack et al. (1984) and Holfels et al. (1994) to measure T. gondii replication in tissue culture. The improvements are based on microscopic visual imspection of infected and inhibitor treated cultures, and on quantitation of nucleic acid synthesis of the parasite by measure intake of ^3H uracil onto the parasite's nucleic acid. Uracil is not utilized by mammalian cells. […]
First the toxicity of gabaculine was assessed by its ability to prevent growth of human foreskin fibroblasts (HFF) as measured by ^3H-thymidine uptake and microscopic evaluation. […] Parasite growth was measured by the ability to incorporate ^3H-uracil during the last 18 hours of culture. In addition, parasite growth was evaluated microscopically in Giemsa stained slides.
This mutant strain is atovaquone resistant and posseses certain characterisitics of the tachyzoite stage and certain characteristics of the bradyzoite stage. T. gondii growth is measure by their ability to incorporate tritiated uracil and is expressed as counts/minute (CPM) on the Y-axis. […]

## O=C(O)CC[N+](=O)[O-] [3-NPA, 3-Nitropropionic acid]
[1]; 3-NPA 0.006 mg ml, 4-day, medium about 30,000 CPM
  CPM restricted (tritiated uracil incorporation): around 60%
[2]
  Isocitrate lyase enzyme activity: inhibition
C. parvum
  effect on Cryptosporidia in vitro: inhibited

## O=C(O)CNCP(=O)(O)O [NPMG, N-(phosphonomethyl) glycine]
[1]; NPMG 3.12 mM, 4 day, medium around 72,000
  CPM restricted (tritiated uracil incorporation): around 60%
[1]; NPMG 4.5 mM, 4 day, medium around 72,000, no RH around 2,000 CPM
  counts (tritiated uracil incorporation): about 12,000 CPM
[1]; PABA added to cultures
  product rescue: effect of added PABA on inhibition by NPMG: abrogates
[1]; Toxoplasma gondii, Fibroblast, 96 h, NPMG 4.5 mM, 4 day, read-out: parasite growth inhibited
  inhibition at 4500 µM: ~80%
C. parvum; NPMG 0.45 μg/ml
  approximate 95% C1 count (mean parasite count per field): ~1200
C. parvum; NPMG 4.5 μg/ml
  approximate 95% C1 count (mean parasite count per field): ~900
C. parvum; NPMG 0.045
  approximate 95% C1 count (mean parasite count per field): ~1200
C. parvum; PABA added
  effect of PABA on the effect of NPMG on C. parvum: not abrogated by PABA
[3]; read-out: IC 50
  IC50: 0.823 µg/mL (≈ 4.87 µM)
[3]; read-out: IC90
  IC90: 2.51 µg/mL (≈ 14.8 µM)
T. gondii EPSP synthase
  EPSP synthase enzyme activity: inhibition
[4]; asexual erythrocytic forms, PABA and folate added
  antagonism of glyphosate growth inhibition by products: PABA and folate antagonism of growth inhibition
T. gondii
  CPM for A: 28138 ± 2216 CPM and 25097 ± 1398 CPM

## NC1C=CC=C(C(=O)O)C1 (centres unmarked) [gabaculine, 3-amino-2,3-dihydrobenzoic acid]
[1]
  CPM restricted (tritiated uracil incorporation): around 50%
  counts (tritiated uracil incorporation): about 5,000 CPM
[1]; Toxoplasma gondii, Fibroblast, 96 h, read-out: growth of T. gondii inhibited
  inhibition at 5000 µM: ~60%
[1]; gabaculine 20 mM, P/S
  Parasite growth over the 8 day time course (CPM): restricted
C. parvum; gabaculine 0.2 μg/ml
  approximate 95% C1 count (mean parasite count per field): ~1300
C. parvum; gabaculine 2 μg/ml
  approximate 95% C1 count (mean parasite count per field): ~600
C. parvum; gabaculine 20 μg/ml
  approximate 95% C1 count (mean parasite count per field): ~200
[5]
  toxicity to the foreskin fibroblasts: no toxicity
[6]
  Parasite growth of R5 strain over 8 days (CPM): restricted in cultures with 20 mM gabaculine (gabaculine) over the first 6 days of culture
[4]; Plasmodium falciparum
  IC50: ≥ 45 µg/mL

From US6737237B1, “Antimicrobial agents, diagnostic reagents, and vaccines based on unique Apicomplexan parasite components” (Apicomplexan Therapeutics, LLC, priority 1999, dated 2004)
